Results taken from patent publication US20200317639A1, “POLYMORPHS OF N-[(2,6-DIFLUORO-3-METHOXYPHENYL)METHYL]-3-(METHOXYMETHYL)-1-({4-[(2-OXOPYRIDIN-1YL)METHYL]PHENYL}METHYL)PYRAZOLE-4-CARBOXAMIDE” (KALVISTA PHARMACEUTICALS LIMITED, priority 2016, published 2020).

Tests used:
Human plasma kallikrein = molecular target: T1, Human plasma kallikrein (Homo sapiens, UniProt P03952); assay: Determination of the IC50 for plasma kallikrein; assay type: biochemical; details: 25° C., substrate H-DPro-Phe-Arg-AFC; read-out: IC50 (human PKaI)
T1 construct: purchased Protogen
Method: Determination of the IC50 for Plasma Kallikrein
(§1) Plasma kallikrein inhibitory activity in vitro was determined using standard published methods (see e.g. Johansen et al., Int. J. Tiss. Reac. 1986, 8, 185; Shori et al., Biochem. Pharmacol., 1992, 43, 1209; Stürzebecher et al., Biol. Chem. Hoppe-Seyler, 1992, 373, 1025). Human plasma kallikrein (Protogen) was incubated at 25° C. with the fluorogenic substrate H-DPro-Phe-Arg-AFC and various concentrations of the test compound. Residual enzyme activity (initial rate of reaction) was determined by measuring the change in […] at 410 nm and the IC50 value for the test compound was determined.

Human KLK1 = molecular target: T2, Human KLK1 (Homo sapiens, UniProt P06870); assay: Determination of the IC50 for KLK1; assay type: biochemical; details: 25° C., substrate H-DVaI-Leu-Arg-AFC
T2 construct: purchased Callbiochem
Method: Determination of the IC50 for KLK1
as §1, with “KLK1” for “Plasma kallikrein”, “KLK1 (Callbiochem)” for “plasma kallikrein (Protogen)”, “H-DVaI-Leu-Arg-AFC” for “H-DPro-Phe-Arg-AFC”

Human FXIa = molecular target: T3, Human FXIa (Homo sapiens, UniProt P03951); assay: Determination of the % inhibition for FXIa; assay type: biochemical; details: 40 μM test compound, 25° C.
T3 construct: purchased Enzyme Research Laboratories
Method: Determination of the % Inhibition for FXIa
as §1, with “FXIa” for “Plasma kallikrein”, “FXIa (Enzyme Research Laboratories)” for “plasma kallikrein (Protogen)”, “Z-Gly-Pro-Arg-AFC” for “H-DPro-Phe-Arg-AFC”, “40 μM” for “various concentrations”, “nm.” for “nm and the IC50 value for the test compound was determined.”

[1] = Pharmacokinetic study, single oral dose in rats; assay type: in vivo; details: male, Sprague-Dawley; rat, po 11.3 mg/kg, vehicle 10% DMSO/10% cremophor/80% SWFI, plasma
Method: A pharmacokinetic study of N-[(2,6-difluoro-3-methoxyphenyl)methyl]-3-(methoxymethyl)-1-({4-[(2-oxopyridin-1-yl)methyl]phenyl}methyl)pyrazole-4-carboxamide was performed to assess the pharmacokinetics following a single oral dose in male Sprague-Dawley rats. Two rats were given a single po dose of 5 mL/kg of a nominal 2 mg/mL (10 mg/kg) composition of test compound in vehicle. Following dosing, blood samples were collected over a period of 24 hours. Sample times were 5, 15 and 30 minutes then 1, 2, 4, 6, 8 and 12 hours. Following collection, blood samples were centrifuged and the plasma fraction analysed for concentration of test compound by LCMS.

[2] = tested on: LPS-induced disseminated intravascular coagulation; details: cited from earlier work
blood = details: contacting blood with the substance; cited from earlier work
[3] = tested on: intrinsic pathway of coagulation; details: in vitro; cited from earlier work
[4] = in vivo; cited from earlier work

T3 sequence (P03951 388-625 limits assumed): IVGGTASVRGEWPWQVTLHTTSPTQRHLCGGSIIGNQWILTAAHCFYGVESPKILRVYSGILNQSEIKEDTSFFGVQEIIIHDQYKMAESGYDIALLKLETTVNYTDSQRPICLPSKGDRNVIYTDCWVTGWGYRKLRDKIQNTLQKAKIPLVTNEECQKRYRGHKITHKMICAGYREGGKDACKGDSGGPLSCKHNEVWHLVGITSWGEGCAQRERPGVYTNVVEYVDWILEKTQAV
T3 sequence (P03951 19-387 partner limits assumed): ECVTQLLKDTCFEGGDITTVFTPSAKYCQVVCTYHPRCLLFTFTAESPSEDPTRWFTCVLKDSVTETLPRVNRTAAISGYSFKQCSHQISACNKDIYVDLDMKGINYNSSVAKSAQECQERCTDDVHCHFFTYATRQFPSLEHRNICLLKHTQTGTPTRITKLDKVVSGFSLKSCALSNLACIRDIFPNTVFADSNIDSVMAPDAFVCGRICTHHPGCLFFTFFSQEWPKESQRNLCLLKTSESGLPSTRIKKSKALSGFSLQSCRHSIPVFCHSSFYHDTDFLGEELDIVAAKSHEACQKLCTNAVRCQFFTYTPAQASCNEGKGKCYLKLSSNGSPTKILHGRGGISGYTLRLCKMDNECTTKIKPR
T2 sequence (P06870 25-262): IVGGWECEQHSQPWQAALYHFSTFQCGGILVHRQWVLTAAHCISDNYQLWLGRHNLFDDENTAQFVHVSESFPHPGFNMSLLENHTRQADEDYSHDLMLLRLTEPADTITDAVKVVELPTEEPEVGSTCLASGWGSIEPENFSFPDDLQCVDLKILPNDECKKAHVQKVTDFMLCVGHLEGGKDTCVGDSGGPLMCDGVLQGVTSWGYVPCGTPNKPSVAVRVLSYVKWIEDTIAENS
T1 sequence (P03952 391-638 limits assumed): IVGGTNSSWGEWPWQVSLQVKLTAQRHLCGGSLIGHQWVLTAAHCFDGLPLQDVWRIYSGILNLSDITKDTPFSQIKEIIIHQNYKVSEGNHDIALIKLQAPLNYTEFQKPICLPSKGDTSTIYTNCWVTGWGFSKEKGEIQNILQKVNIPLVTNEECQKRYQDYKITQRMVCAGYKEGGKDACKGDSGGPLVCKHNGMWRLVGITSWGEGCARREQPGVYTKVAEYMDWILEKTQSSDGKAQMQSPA
T1 sequence (P03952 20-390 partner limits assumed): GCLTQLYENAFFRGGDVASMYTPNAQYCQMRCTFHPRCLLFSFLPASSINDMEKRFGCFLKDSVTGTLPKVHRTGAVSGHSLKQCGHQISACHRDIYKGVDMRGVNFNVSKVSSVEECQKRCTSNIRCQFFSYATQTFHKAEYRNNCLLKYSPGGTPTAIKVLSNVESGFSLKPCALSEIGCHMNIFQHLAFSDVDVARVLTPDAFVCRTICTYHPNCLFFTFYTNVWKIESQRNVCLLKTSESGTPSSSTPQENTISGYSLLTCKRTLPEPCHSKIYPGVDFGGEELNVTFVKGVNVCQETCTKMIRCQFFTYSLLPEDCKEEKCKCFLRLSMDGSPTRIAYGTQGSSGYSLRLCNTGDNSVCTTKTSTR

Compound `COCc1nn(Cc2ccc(Cn3ccccc3=O)cc2)cc1C(=O)NCc1c(F)ccc(OC)c1F` [N-[(2,6-difluoro-3-methoxyphenyl)methyl]-3-(methoxymethyl)-1-({4-[(2-oxopyridin-1-yl)methyl]phenyl}methyl)pyrazole-4-carboxamide] has an IC50 (Human plasma kallikrein) of 4.5 nM, an IC50 (Human KLK1) greater than 10000 nM and an inhibition at 40 µM (Human FXIa) of 4%. The Cmax [1] was 2890 ng/mL and the Tmax [1] was 1 h.

In the case of `Cl.NCC1CCC(C(=O)N[C@@H](Cc2ccccc2)C(=O)Nc2ccc(CC(=O)O)cc2)CC1` (stereo partly drawn) [PKSI-527], the “Decrease in platelet count and fibrinogen level and increase in FDP level” value [2] is listed as “significantly suppressed”.

In the case of Ecallantide, the “Activated clotting time (ACT)” value (blood) is given as “increase in activated clotting time”, the “Contact activated induced coagulation” value [3] is given as “delay contact activated induced coagulation” and the Anaphylactic reactions [4] is given as “risks of anaphylactic reactions”.
